According to the CheMixHub viscosity set:
Values joined by “and” are separate entries in the source; they are usually repeats but may differ in a detail not shown here. Equal entries are not always repeated. ± gives the uncertainty stated by the source.

C1COCCO1
Conditions | viscosity
293.15 K, 100 kPa | 1.286 ± 0.13 mPa·s and 1.221 ± 0.24 mPa·s
293.15 K, 101 kPa | 1.271 ± 0.012 mPa·s
293.15 K, 101.3 kPa | 1.297 ± 0.017 mPa·s
295.1 K, 101.32 kPa | 1.26 ± 0.0099 mPa·s
298.15 K, 100 kPa | 1.122 ± 0.23 mPa·s
298.15 K, 101 kPa | 1.155 ± 0.011 mPa·s
298.15 K, 101.33 kPa | 1.321 ± 0.009 mPa·s and 1.149 ± 0.02 mPa·s
301.15 K, 101.32 kPa | 1.116 ± 0.0088 mPa·s
302.15 K, 101 kPa | 1.099 ± 0.0087 mPa·s
303.15 K, 100 kPa | 1.034 ± 0.21 mPa·s
304.15 K, 101.32 kPa | 1.046 ± 0.0083 mPa·s
306.15 K, 101 kPa | 1.029 ± 0.0082 mPa·s
307.15 K, 101.32 kPa | 0.9913 ± 0.0079 mPa·s
308.15 K, 100 kPa | 0.999 ± 0.04 mPa·s
308.15 K, 101.33 kPa | 1 ± 0.007 mPa·s and 0.999 ± 0.025 mPa·s and 0.969 ± 0.016 mPa·s
309.15 K, 101 kPa | 0.9815 ± 0.0078 mPa·s
310.15 K, 101.32 kPa | 0.9402 ± 0.0075 mPa·s
311.15 K, 101 kPa | 0.9497 ± 0.022 mPa·s
313.1 K, 101 kPa | 0.929 ± 0.015 mPa·s and 0.929 ± 0.016 mPa·s
313.15 K, 101.32 kPa | 0.939 ± 0.024 mPa·s and 0.8914 ± 0.0072 mPa·s
313.15 K, 101.33 kPa | 0.9376 ± 0.059 mPa·s
316.15 K, 101 kPa | 0.8859 ± 0.021 mPa·s
318.15 K, 101.33 kPa | 0.8714 ± 0.056 mPa·s and 0.901 ± 0.015 mPa·s
320.15 K, 101 kPa | 0.8276 ± 0.019 mPa·s
323.1 K, 101 kPa | 0.809 ± 0.013 mPa·s and 0.809 ± 0.014 mPa·s
323.15 K, 100 kPa | 0.814 ± 0.082 mPa·s
323.15 K, 101 kPa | 0.8147 ± 0.0082 mPa·s and 0.819 ± 0.0082 mPa·s
323.15 K, 101.33 kPa | 0.8121 ± 0.053 mPa·s

CCCCn1cc[n+](C)c1.O=S(=O)([N-]S(=O)(=O)C(F)(F)F)C(F)(F)F
Conditions | viscosity
293.15 K, 100 kPa | 61.47 ± 2.7 mPa·s
293.15 K, 101 kPa | 64.6 ± 1.3 mPa·s and 62.91 ± 2.6 mPa·s and 65.11 ± 0.61 mPa·s
293.15 K, 101.3 kPa | 63.1 ± 1.3 mPa·s
293.3 K, 100 kPa | 62.66 ± 4 mPa·s
293.61 K, 100 kPa | 61.82 ± 3.9 mPa·s
293.91 K, 100 kPa | 60.98 ± 3.8 mPa·s
294.21 K, 100 kPa | 60.17 ± 3.8 mPa·s
294.52 K, 100 kPa | 59.36 ± 3.7 mPa·s
294.82 K, 100 kPa | 58.58 ± 3.6 mPa·s
295.12 K, 100 kPa | 57.8 ± 3.6 mPa·s
295.42 K, 100 kPa | 57.04 ± 3.5 mPa·s
295.73 K, 100 kPa | 56.29 ± 3.4 mPa·s
296.03 K, 100 kPa | 55.56 ± 3.4 mPa·s
296.33 K, 100 kPa | 54.84 ± 3.3 mPa·s
296.64 K, 100 kPa | 54.13 ± 3.2 mPa·s
296.94 K, 100 kPa | 53.43 ± 3.2 mPa·s
297.24 K, 100 kPa | 52.75 ± 3.1 mPa·s
297.55 K, 100 kPa | 52.07 ± 3.1 mPa·s
297.85 K, 100 kPa | 51.41 ± 3 mPa·s
298 K, 100 kPa | 49.74 ± 1.3 mPa·s
298 K, 101 kPa | 50.4 ± 1.9 mPa·s
298.15 K, 101 kPa | 50.29 ± 2.1 mPa·s and 51.73 ± 0.46 mPa·s and 45.3 ± 1.1 mPa·s
298.15 K, 101.3 kPa | 50.53 ± 1 mPa·s
298.45 K, 100 kPa | 50.12 ± 2.9 mPa·s
298.76 K, 100 kPa | 49.49 ± 3.1 mPa·s
299.06 K, 100 kPa | 48.87 ± 3 mPa·s
299.36 K, 100 kPa | 48.26 ± 3 mPa·s
299.67 K, 100 kPa | 47.66 ± 2.9 mPa·s
299.97 K, 100 kPa | 47.08 ± 2.9 mPa·s
300.27 K, 100 kPa | 46.5 ± 2.9 mPa·s
300.58 K, 100 kPa | 45.93 ± 2.8 mPa·s
300.88 K, 100 kPa | 45.37 ± 2.8 mPa·s
301.18 K, 100 kPa | 44.82 ± 2.8 mPa·s
301.48 K, 100 kPa | 44.27 ± 2.7 mPa·s
301.79 K, 100 kPa | 43.74 ± 2.7 mPa·s
302.09 K, 100 kPa | 43.22 ± 2.6 mPa·s
302.39 K, 100 kPa | 42.7 ± 2.6 mPa·s
302.7 K, 100 kPa | 42.19 ± 2.6 mPa·s
303 K, 100 kPa | 41.69 ± 2.5 mPa·s
303.15 K, 100 kPa | 40.54 ± 0.51 mPa·s and 39.95 ± 1.8 mPa·s
303.15 K, 101 kPa | 40.77 ± 1.7 mPa·s and 41.8 ± 0.39 mPa·s
303.61 K, 100 kPa | 40.71 ± 2.5 mPa·s
303.91 K, 100 kPa | 40.23 ± 2.4 mPa·s
304.21 K, 100 kPa | 39.76 ± 2.4 mPa·s
304.52 K, 100 kPa | 39.3 ± 2.4 mPa·s
304.82 K, 100 kPa | 38.85 ± 2.3 mPa·s
305.12 K, 100 kPa | 38.4 ± 2.3 mPa·s
305.42 K, 100 kPa | 37.96 ± 2.3 mPa·s
305.73 K, 100 kPa | 37.52 ± 2.2 mPa·s
306.03 K, 100 kPa | 37.09 ± 2.2 mPa·s
306.33 K, 100 kPa | 36.67 ± 2.2 mPa·s
306.64 K, 100 kPa | 36.25 ± 2.2 mPa·s
306.94 K, 100 kPa | 35.85 ± 2.1 mPa·s
307.24 K, 100 kPa | 35.44 ± 2.1 mPa·s
307.55 K, 100 kPa | 35.04 ± 2.1 mPa·s
307.85 K, 100 kPa | 34.65 ± 2.1 mPa·s
308.15 K, 101 kPa | 34.3 ± 0.32 mPa·s
308.15 K, 101.3 kPa | 33.95 ± 0.71 mPa·s
308.76 K, 100 kPa | 33.51 ± 2 mPa·s
309.06 K, 100 kPa | 33.14 ± 2 mPa·s
309.36 K, 100 kPa | 32.78 ± 1.9 mPa·s
309.67 K, 100 kPa | 32.42 ± 1.9 mPa·s
309.97 K, 100 kPa | 32.07 ± 1.9 mPa·s
310.27 K, 100 kPa | 31.72 ± 1.9 mPa·s
310.58 K, 100 kPa | 31.38 ± 1.8 mPa·s
310.88 K, 100 kPa | 31.04 ± 1.8 mPa·s
311.18 K, 100 kPa | 30.71 ± 1.8 mPa·s
311.48 K, 100 kPa | 30.38 ± 1.8 mPa·s
311.79 K, 100 kPa | 30.05 ± 1.8 mPa·s
312.09 K, 100 kPa | 29.73 ± 1.7 mPa·s
312.39 K, 100 kPa | 29.42 ± 1.7 mPa·s
312.7 K, 100 kPa | 29.11 ± 1.7 mPa·s
313 K, 100 kPa | 28.8 ± 1.7 mPa·s
313.15 K, 100 kPa | 28 ± 0.36 mPa·s
313.15 K, 101 kPa | 28.06 ± 1.2 mPa·s
313.15 K, 101.3 kPa | 28.39 ± 0.59 mPa·s
313.2 K, 101.33 kPa | 27.26 ± 2.9 mPa·s
313.61 K, 100 kPa | 28.2 ± 1.6 mPa·s
313.91 K, 100 kPa | 27.91 ± 1.6 mPa·s
314.21 K, 100 kPa | 27.62 ± 1.6 mPa·s
314.52 K, 100 kPa | 27.33 ± 1.6 mPa·s
314.82 K, 100 kPa | 27.05 ± 1.6 mPa·s
315.12 K, 100 kPa | 26.77 ± 1.6 mPa·s
315.42 K, 100 kPa | 26.49 ± 1.5 mPa·s
315.73 K, 100 kPa | 26.22 ± 1.5 mPa·s
316.03 K, 100 kPa | 25.95 ± 1.5 mPa·s
316.33 K, 100 kPa | 25.69 ± 1.5 mPa·s
316.64 K, 100 kPa | 25.43 ± 1.5 mPa·s
316.94 K, 100 kPa | 25.17 ± 1.4 mPa·s
317.24 K, 100 kPa | 24.92 ± 1.4 mPa·s
317.55 K, 100 kPa | 24.67 ± 1.4 mPa·s
318.15 K, 100 kPa | 23.75 ± 0.31 mPa·s and 24.18 ± 1.4 mPa·s
318.76 K, 100 kPa | 23.7 ± 1.4 mPa·s
319.06 K, 100 kPa | 23.47 ± 1.3 mPa·s
319.36 K, 100 kPa | 23.23 ± 1.3 mPa·s
319.67 K, 100 kPa | 23 ± 1.3 mPa·s
319.97 K, 100 kPa | 22.78 ± 1.3 mPa·s
320.27 K, 100 kPa | 22.56 ± 1.3 mPa·s
320.58 K, 100 kPa | 22.34 ± 1.3 mPa·s
320.88 K, 100 kPa | 22.12 ± 1.2 mPa·s
321.18 K, 100 kPa | 21.9 ± 1.2 mPa·s
321.48 K, 100 kPa | 21.69 ± 1.2 mPa·s
321.79 K, 100 kPa | 21.48 ± 1.2 mPa·s
322.09 K, 100 kPa | 21.28 ± 1.2 mPa·s
322.39 K, 100 kPa | 21.07 ± 1.2 mPa·s
